Patent publication US20010041688A1, “Methods and compositions for the regulation of vasoconstriction” (priority 2000, published 2001)

Key:
[1] = system: basilar artery; test: Contractile tension in isolated basilar artery (isometric myograph); details: isolated rat basilar artery; for Contractile response Emax: % of contraction evoked by 100 mM KCl; for EC50: read-out: Contractile response EC50
Protocol: (§1) Preparations were equilibrated unstretched for 30 min.

[2] = system: coronary artery; test: Contractile tension in isolated coronary artery (isometric myograph); details: isolated rat coronary artery; for Contractile response Emax: % of contraction evoked by 100 mM KCl
Protocol: as §1

[3] = system: carotid artery; test: Contractile tension in isolated carotid artery (isometric myograph); details: isolated rat carotid artery; for Contractile response Emax: % of contraction evoked by 100 mM KCl
Protocol: as §1

[4] = system: femoral artery; test: Contractile tension in isolated femoral artery (isometric myograph); details: isolated rat femoral artery; for Contractile response Emax: % of contraction evoked by 100 mM KCl
Protocol: as §1

[5] = system: cerebral blood flow; test: Relative cerebral blood flow by laser Doppler flowmetry in anesthetized rats; type: in vivo, rat; details: for Relative cerebral blood flow (rCBF) in cerebral cortex: 0.3 mg/kg infused into left internal carotid artery, anesthetized rats
Protocol: Pentobarbital-anaesthetized mechanically-ventilated male rats (250-300 g, Charles River) were maintained at 37.0±0.5° C. A femoral vein and artery were cannulated to monitor mean arterial blood pressure, heart rate and arterial blood gases. The left common carotid artery was ligated. The animals were placed in a stereotaxic frame and relative cerebral blood flow (rCBF) was measured by a laser Doppler flow probe (Model PF2B, Perimed) affixed to the thinned skull above the vascular territory of the left middle cerebral artery (2 mm posterior to Bregma, 3 mm lateral to midline). Changes in rCBF were expressed as a percentage of baseline and recorded for 20 minutes beginning at the onset of drug or vehicle infusion. S1P, DHS1P or vehicle were infused (100 μl/2 minutes) into the left internal carotid artery. Some rats were pretreated with suramin via infusion (200 μl/2 min) into the left femoral vein.

[6] = system: S1P-induced vasoconstriction of basilar artery; test: Modulation of S1P-induced vasoconstriction in isolated basilar artery; parameters: species or system rat
[7] = system: basilar artery; parameters: species or system rat
[8] = system: middle cerebral artery; test: Contractile tension in isolated middle cerebral artery (isometric myograph); details: isolated rat middle cerebral artery; for Contractile response Emax: % of contraction evoked by 100 mM KCl; for EC50: read-out: Contractile response EC50
Protocol: as §1

[9] = system: mouse basilar arteries; test: Constriction of mouse basilar artery; details: data not shown
[10] = system: rabbit basilar arteries; test: Constriction of rabbit basilar artery; details: data not shown
[11] = read-out: Contractile response EC50

CCCCCCCCCCCCCCC[C@@H](O)[C@@H](N)COP(=O)(O)O [DHS1P, dihydrosphingosine-1-phosphate]
Contraction (in words) [1]: less effectively than S1P | Contractile response Emax [1]: 58.8 % KCl | EC50 [1]: 240 nM | Contractile response Emax [2]: 15.9 % KCl | Contractile response Emax [3]: 5.9 % KCl | Contractile response Emax [4]: 6.3 % KCl | Relative cerebral blood flow (rCBF) in cerebral cortex [5]: reduced rCBF, although less potently

Cc1ccc(C(=O)Nc2ccc(S(=O)(=O)O)c3cc(S(=O)(=O)O)cc(S(=O)(=O)O)c23)cc1NC(=O)c1cccc(NC(=O)Nc2cccc(C(=O)Nc3cc(C(=O)Nc4ccc(S(=O)(=O)O)c5cc(S(=O)(=O)O)cc(S(=O)(=O)O)c45)ccc3C)c2)c1 [suramin]
Contractile response to S1P after preincubation with suramin ([6]; 10 μM suramin, added 30 min prior to S1P): markedly depressed | Contractile response to 5-HT after preincubation with suramin ([7]; data not shown): did not modify | S1P's effect on rCBF after suramin pretreatment ([5]; suramin 16 mg/kg via femoral vein, S1P 0.3 mg/kg): abolished

[Cl-].[K+] [KCl, potassium chloride]
Contractile response to KCl ([1]; 100 mM KCl): 1.70 mN/mm | Contractile response to KCl ([8]; 100 mM KCl): 1.05 mN/mm | Contractile response to KCl ([2]; 100 mM KCl): 1.87 mN/mm | Contractile response to KCl ([3]; 100 mM KCl): 2.28 mN/mm | Contractile response to KCl ([4]; 100 mM KCl): 4.52 mN/mm

CCCCCCCCCCCCC/C=C/[C@@H](O)[C@@H](N)CO [sphingosine]
Contractile response to S1P after preincubation with sphingosine together with DMS ([6]; sphingosine 10 μM plus DMS 20 μM, added 30 min prior to S1P): fully blocked

Pertussis toxin
Effect of toxin incubation on S1P-induced vasoconstriction (in words) ([6]; basilar artery segments treated in vitro with toxin): did not modify | Response to 5-HT1 receptor agonist 5-carboxamidotryptamine after incubation with toxin ([7]; without toxin 92±10, n=4, p<0.05): 30±2 % of KCl-evoked contraction

CCCCCCCCCCCCC/C=C/[C@@H](O)[C@@H](N)COP(=O)(O)O [S1P, sphingosine-1-phosphate]
Contraction (in words) [1]: robust contraction | Contractile response Emax [1]: 96.7 % KCl | EC50 [1]: 280 nM | Contraction (in words) [8]: robust contraction | Contractile response Emax [8]: 77.6 % KCl | EC50 [8]: 350 nM | Contraction (in words) [2]: weakly constricted | Contractile response Emax [2]: 16.9 % KCl | Contraction (in words) [3]: unresponsive | Contractile response Emax [3]: 5.2 % KCl | Contraction (in words) [4]: unresponsive | Contractile response Emax [4]: 3.6 % KCl | Relative cerebral blood flow (rCBF) in cerebral cortex [5]: decreased | Constriction (in words) [9]: able to constrict | Constriction (in words) [10]: able to constrict

NCCc1c[nH]c2ccc(O)cc12 [5-HT, 5-hydroxytryptamine]
Contractile response Emax [1]: 99.5 % KCl | EC50 [1]: 63 nM | Contractile response Emax [8]: 73.2 % KCl | EC50 [8]: 44 nM | Contractile response Emax [2]: 119.3 % KCl | EC50 [2, 11]: 242 nM | Contractile response Emax [3]: 101.1 % KCl | EC50 [3, 11]: 3180 nM | Contractile response Emax [4]: 133.2 % KCl | EC50 [4, 11]: 122 nM
